Measured values as given in PubChem BioAssay AID248 (DTP/NCI, 2004).
Where “and” joins values, the source holds several entries; their conditions need not be identical. Equal entries are not always repeated. Toxic doses and inconclusive results are not listed. Rule as the data show it: active = T/C of 150% or more; inactive = T/C below 125%.

Tested on: L1210 leukemia ip in BDF1 mice, survival T/C
Assay: NCI In Vivo Anticancer Drug Screen. Data for tumor model L1210 Leukemia (intraperitoneal) in B6D2F1 (BDF1) mice
Conditions: endpoint: mean survival time, higher = longer survival
Outline: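 Mice bearing the transplanted tumor received compound or vehicle. Survival of the treated group was divided by that of the vehicle-treated control group to give the ratio.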

[1] = dose: 100.0 mg/kg/injection, schedule: Q01DX001 (ip), vehicle: carboxymethylcellulose (CMC)
[2] = dose: 200.0 mg/kg/injection, schedule: Q01DX001 (ip), vehicle: carboxymethylcellulose (CMC)
[3] = dose: 400.0 mg/kg/injection, schedule: Q01DX001 (ip), vehicle: carboxymethylcellulose (CMC)
[4] = dose: 100.0 mg/kg/injection, schedule: Q01DX001 (ip), vehicle: saline
[5] = dose: 200.0 mg/kg/injection, schedule: Q01DX001 (ip), vehicle: saline
[6] = dose: 400.0 mg/kg/injection, schedule: Q01DX001 (ip), vehicle: saline
[7] = dose: 100.0 mg/kg/injection, schedule: Q04DX002 (ip), vehicle: saline with Tween-80
[8] = dose: 200.0 mg/kg/injection, schedule: Q04DX002 (ip), vehicle: saline with Tween-80
[9] = dose: 400.0 mg/kg/injection, schedule: Q04DX002 (ip), vehicle: saline with Tween-80
[10] = dose: 100.0 mg/kg/injection, schedule: Q01DX009 (ip), vehicle: saline with Tween-80
[11] = dose: 200.0 mg/kg/injection, schedule: Q01DX009 (ip), vehicle: saline with Tween-80
[12] = dose: 100.0 mg/kg/injection, schedule: Q01DX001 (ip), vehicle: Klucel (hydroxypropylcellulose) (HPC)
[13] = dose: 200.0 mg/kg/injection, schedule: Q01DX001 (ip), vehicle: Klucel (hydroxypropylcellulose) (HPC)
[14] = dose: 100.0 mg/kg/injection, schedule: Q01DX009 (ip), vehicle: Klucel (hydroxypropylcellulose) (HPC)
[15] = dose: 100.0 mg/kg/injection, schedule: Q01DX009 (ip), vehicle: saline
[16] = dose: 200.0 mg/kg/injection, schedule: Q01DX009 (ip), vehicle: Klucel (hydroxypropylcellulose) (HPC)
[17] = dose: 200.0 mg/kg/injection, schedule: Q01DX009 (ip), vehicle: saline
[18] = dose: 400.0 mg/kg/injection, schedule: Q01DX009 (ip), vehicle: Klucel (hydroxypropylcellulose) (HPC)
[19] = dose: 50.0 mg/kg/injection, schedule: Q01DX001 (ip), vehicle: saline
[20] = dose: 50.0 mg/kg/injection, schedule: Q01DX009 (ip), vehicle: saline with Tween-80

Measured: T/C

CC(=O)OC1OC(C2COC(C)(C)O2)C2OC(C)(C)OC12 (centres undefined)
inactive: [1] 103 % of control | [2] 103 % of control | [3] 103 % of control

COc1nc2c(N)ncnc2n1C1OC(CO)C(O)C1O (centres undefined)
inactive: [4] 97 % of control | [5] 103 % of control | [6] 103 % of control

COC(=O)c1cn(/C=C/c2ccccc2)cn1
inactive: dose: 87.5 mg/kg/injection, schedule: Q04DX003 (ip), vehicle: Klucel (hydroxypropylcellulose) (HPC) 94 % of control | dose: 175.0 mg/kg/injection, schedule: Q04DX003 (ip), vehicle: Klucel (hydroxypropylcellulose) (HPC) 89 % of control | dose: 350.0 mg/kg/injection, schedule: Q04DX003 (ip), vehicle: Klucel (hydroxypropylcellulose) (HPC) 97 % of control

N#CCCN(Cc1cccnc1)CN1C(=O)c2ccccc2C1=O
inactive: [7] 91 % of control | [8] 97 % of control | [9] 102 % of control

CC1=CC=CC(=O)C1(C)C(Cl)Cl (centres undefined)
inactive: [10] 91 % of control | dose: 100.0 mg/kg/injection, schedule: Q04DX003 (ip), vehicle: saline with Tween-80 97 % of control | [11] 104 % of control | dose: 200.0 mg/kg/injection, schedule: Q04DX003 (ip), vehicle: saline with Tween-80 108 % of control | dose: 400.0 mg/kg/injection, schedule: Q01DX009 (ip), vehicle: saline with Tween-80 109 % of control | dose: 400.0 mg/kg/injection, schedule: Q04DX003 (ip), vehicle: saline with Tween-80 94 % of control

CC(=O)OC1CCC(=O)C2C(C(=O)O)CCCC12 (centres undefined)
inactive: [4] 97 % of control | [5] 103 % of control | [6] 91 % of control

CCOC(=O)C(NC(=O)c1cc2sccc2[nH]1)C(=O)OCC
inactive: [12] 96 % of control | [13] 96 % of control | dose: 400.0 mg/kg/injection, schedule: Q01DX001 (ip), vehicle: Klucel (hydroxypropylcellulose) (HPC) 98 % of control

CC(O)CN1C(=O)c2cccc3cc([N+](=O)[O-])cc(c23)C1=O (centres undefined)
inactive: [7] 95 % of control | [8] 103 % of control | [9] 98 % of control

CC(=O)c1c(OC(=O)c2ccccc2)cc(OC(=O)c2ccccc2)cc1OC(=O)c1ccccc1
inactive: [14] 101 % of control | [15] 97 % of control | [16] 93 % of control | [17] 106 % of control | [18] 95 % of control | dose: 400.0 mg/kg/injection, schedule: Q01DX009 (ip), vehicle: saline 100 % of control

CCCCCCCCCCCCCCCCCCNC(=O)Nc1cc(C(C)C)ccc1C
inactive: dose: 100.0 mg/kg/injection, schedule: Q01DX009 (ip), vehicle: other 86 % of control | dose: 200.0 mg/kg/injection, schedule: Q01DX009 (ip), vehicle: other 88 % of control | dose: 400.0 mg/kg/injection, schedule: Q01DX009 (ip), vehicle: other 99 % of control and 100 % of control

CC(C(=O)c1ccc(O)c(O)c1)N1CCCCC1 (centres undefined)
inactive: [1] 102 % of control | [2] 102 % of control | [3] 96 % of control

CCCCCCCCC(CCCCCCCC)CCc1ccccc1
inactive: dose: 100.0 mg/kg/injection, schedule: Q01DX001 (ip), vehicle: saline + alcohol 101 % of control | dose: 200.0 mg/kg/injection, schedule: Q01DX001 (ip), vehicle: saline + alcohol 100 % of control | dose: 400.0 mg/kg/injection, schedule: Q01DX001 (ip), vehicle: saline + alcohol 97 % of control

O=C1C=CC(=O)c2c(O)c(CO)c(CO)c(O)c21
inactive: dose: 0.78 mg/kg/injection, schedule: Q01DX009 (ip), vehicle: water 89 % of control | dose: 1.56 mg/kg/injection, schedule: Q01DX009 (ip), vehicle: water 86 % of control

CCN(CC)C(/C=C/c1ccccc1)=N\S(=O)(=O)c1ccccc1
inactive: dose: 50.0 mg/kg/injection, schedule: Q01DX001 (ip), vehicle: Klucel (hydroxypropylcellulose) (HPC) 102 % of control | [12] 105 % of control | [13] 104 % of control

COc1ccccc1NC(=O)NC1CCCCC1
inactive: [14] 100 % of control | [16] 100 % of control | [18] 102 % of control

CN=C(Nc1ccc(N(C)C)cc1)SC
inactive: dose: 75.0 mg/kg/injection, schedule: Q01DX001 (ip), vehicle: other 105 % of control | dose: 150.0 mg/kg/injection, schedule: Q01DX001 (ip), vehicle: other 103 % of control

CC1CCC(C(C)C)C(NCc2cc(Cl)cc(Cl)c2O)C1 (centres undefined)
inactive: dose: 100.0 mg/kg/injection, schedule: Q04DX003 (ip), vehicle: Klucel (hydroxypropylcellulose) (HPC) 104 % of control | dose: 200.0 mg/kg/injection, schedule: Q04DX003 (ip), vehicle: Klucel (hydroxypropylcellulose) (HPC) 101 % of control | dose: 400.0 mg/kg/injection, schedule: Q04DX003 (ip), vehicle: Klucel (hydroxypropylcellulose) (HPC) 97 % of control

CC(C)CCC1(c2ccccc2)C(=O)NC(=O)NC1=O
inactive: [4] 92 % of control

NC(CCl)=NCc1ccccc1
inactive: dose: 6.25 mg/kg/injection, schedule: Q01DX009 (ip), vehicle: saline 97 % of control and 98 % of control | dose: 12.5 mg/kg/injection, schedule: Q01DX009 (ip), vehicle: saline 101 % of control and 115 % of control | dose: 25.0 mg/kg/injection, schedule: Q01DX001 (ip), vehicle: saline 98 % of control | dose: 25.0 mg/kg/injection, schedule: Q04DX002 (ip), vehicle: saline 105 % of control and 91 % of control | dose: 25.0 mg/kg/injection, schedule: Q04DX003 (ip), vehicle: saline 90 % of control | [19] 97 % of control | dose: 50.0 mg/kg/injection, schedule: Q04DX002 (ip), vehicle: saline 94 % of control and 89 % of control | dose: 50.0 mg/kg/injection, schedule: Q04DX003 (ip), vehicle: saline 97 % of control | dose: 100.0 mg/kg/injection, schedule: Q04DX003 (ip), vehicle: saline 95 % of control

SCCSCCNc1ccccc1
inactive: [20] 101 % of control | [10] 101 % of control | [11] 101 % of control

CC(=O)c1ccc[n+](C)c1
inactive: dose: 50.0 mg/kg/injection, schedule: Q01DX009 (ip), vehicle: saline 102 % of control | [15] 100 % of control | [17] 91 % of control

O/N=C/CCCC/C=N/O
inactive: [20] 91 % of control | [10] 91 % of control | [11] 91 % of control

O=C1NC2c3ccccc3CC12 (centres undefined)
inactive: dose: 100.0 mg/kg/injection, schedule: Q01DX001 (ip), vehicle: saline with Tween-80 95 % of control | dose: 200.0 mg/kg/injection, schedule: Q01DX001 (ip), vehicle: saline with Tween-80 92 % of control | dose: 400.0 mg/kg/injection, schedule: Q01DX001 (ip), vehicle: saline with Tween-80 89 % of control

COc1cccc(NC(=S)N(CCC#N)C2CCCCC2)c1
inactive: [7] 102 % of control | [8] 97 % of control | [9] 97 % of control

CN=C(C#N)c1ccc(OC)c(OC)c1
inactive: [19] 102 % of control | [4] 96 % of control | [5] 102 % of control | [6] 102 % of control
